According to patent US11083716B2 (Achieve Life Sciences, Inc., priority 2019, dated 2021):
Read-outs that look alike come from different tables or passages of the source.

Columns and labels:
[1] = test system: smokers; conditions: cited from earlier work
[2] = test system: smokers; conditions: cited from earlier work; remark: listed apart in the source
[3] = Cochrane (n > 7000); cited from earlier work
[4] = molecular target: alpha4, beta2 (α4β2) receptors (Homo sapiens, UniProt P17787+P43681); conditions: cited from earlier work
[5] = test system: adults smoking 10+ cigarettes daily
Experimental: This was a six-arm, multi-center, double-blind, randomized, placebo-controlled study conducted in male or female adults years of age, smoking 10+ cigarettes daily, and willing to set a quit date that is 5-7 days after randomization. […] The study also evaluated the effectiveness of a simplified TID dosing schedule for 1.5 mg and an increased dose of 3.0 mg (using both the commercial titration (COM) and simplified TID dosing schedules).
Study treatment started the day after randomization such that study treatment was initiated prior to the quit date, as shown in FIG. 3.
The primary efficacy endpoint for this study was the percent reduction in the number of cigarettes smoked during treatment, which was calculated as follows:
[formula] where N=total number of cigarettes smoked, B=number of cigarettes smoked at baseline and D=number of days.
The primary outcome (Cigarette Score) and the main secondary abstinence outcomes were subjected to sensitivity analyses. The main secondary abstinence outcomes were the initial quit rate at Week 4 and continued 4-week abstinence through Week 5 to Week 8, confirmed by expired CO of <10 ppm designated as Cess/W5-8/CO Success.
The primary outcome was based on the number of cigarettes smoked on each day from a diary. The Cigarette Score used the diary data for the planned 25 days while on study treatment. Presented are sensitivity analyses for the comparison of the 3.0 mg TID arm and the pooled placebo arm related to variations on the primary analysis of Cigarette Score. The alternative definition of the Cigarette Score featured cigarettes recorded in the diary after the planned quit period of Days 5-7, that is, from Day 8 onward, instead of from Day 1 onward.
Another alterative analysis was based on re-analyses of the primary Cigarette Score and the above alternative Cigarette Score, with a weight related to the standard error of the mean number of cigarettes estimated from the diary entries. The weight used for each subject was 1/(SE)^2, where SE is the standard error of the mean estimate, and this type of weighting, referred to as inverse variance weighting, is used commonly. This weighting gives greater weight to means that are estimated with a smaller SE. A small modification to this definition of weight was necessary, however. In computing 1/(SE)^2, a specific rule was used when SE=0, specifically when all diary entry values were equal. In these cases, the SE was computed as if one and only one of the recorded values was larger by one. It can be shown that when this modification to the data is made SE=1/N, where N is the number of the subjects daily (days) entries.

[6] = end of treatment, 12 weeks (EAGLES)
[7] = 1.5 mg Downward Titration (n = 51)
[8] = 3.0 mg Downward Titration (n = 50)
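Throughout, for TEAE: Abnormal dreams, subjects n (%): multicenter double-blind randomized placebo-controlled trial in adult smokers of 10 or more cigarettes per day, counting subjects with treatment-emergent adverse events per arm.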
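Throughout, for TEAE: At least 1 AE, subjects n (%): multicenter double-blind randomized placebo-controlled trial in adult smokers of 10 or more cigarettes per day, counting subjects with treatment-emergent adverse events per arm.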
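Throughout, for TEAE: Fatigue, subjects n (%): multicenter double-blind randomized placebo-controlled trial in adult smokers of 10 or more cigarettes per day, counting subjects with treatment-emergent adverse events per arm.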
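Throughout, for TEAE: Headache, subjects n (%): multicenter double-blind randomized placebo-controlled trial in adult smokers of 10 or more cigarettes per day, counting subjects with treatment-emergent adverse events per arm.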

Chain of alpha4, beta2 (α4β2) receptors (P43681 29-627 limits assumed): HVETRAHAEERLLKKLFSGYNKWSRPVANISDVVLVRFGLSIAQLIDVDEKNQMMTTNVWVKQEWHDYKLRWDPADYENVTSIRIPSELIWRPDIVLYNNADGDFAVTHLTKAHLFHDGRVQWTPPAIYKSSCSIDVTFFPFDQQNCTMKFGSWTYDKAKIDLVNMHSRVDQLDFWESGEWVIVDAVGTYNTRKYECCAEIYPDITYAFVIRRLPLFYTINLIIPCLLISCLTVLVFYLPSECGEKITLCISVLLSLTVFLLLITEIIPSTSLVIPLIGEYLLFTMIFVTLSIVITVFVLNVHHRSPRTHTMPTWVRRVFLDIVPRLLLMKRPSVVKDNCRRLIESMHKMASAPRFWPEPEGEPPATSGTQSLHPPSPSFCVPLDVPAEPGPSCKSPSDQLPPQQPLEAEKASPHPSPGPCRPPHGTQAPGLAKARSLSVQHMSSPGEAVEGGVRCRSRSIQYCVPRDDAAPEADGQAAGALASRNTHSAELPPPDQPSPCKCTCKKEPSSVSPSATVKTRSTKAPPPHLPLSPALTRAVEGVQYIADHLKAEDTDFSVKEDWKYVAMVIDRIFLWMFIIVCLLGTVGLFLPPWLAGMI
Chain of alpha4, beta2 (α4β2) receptors (P17787 26-502): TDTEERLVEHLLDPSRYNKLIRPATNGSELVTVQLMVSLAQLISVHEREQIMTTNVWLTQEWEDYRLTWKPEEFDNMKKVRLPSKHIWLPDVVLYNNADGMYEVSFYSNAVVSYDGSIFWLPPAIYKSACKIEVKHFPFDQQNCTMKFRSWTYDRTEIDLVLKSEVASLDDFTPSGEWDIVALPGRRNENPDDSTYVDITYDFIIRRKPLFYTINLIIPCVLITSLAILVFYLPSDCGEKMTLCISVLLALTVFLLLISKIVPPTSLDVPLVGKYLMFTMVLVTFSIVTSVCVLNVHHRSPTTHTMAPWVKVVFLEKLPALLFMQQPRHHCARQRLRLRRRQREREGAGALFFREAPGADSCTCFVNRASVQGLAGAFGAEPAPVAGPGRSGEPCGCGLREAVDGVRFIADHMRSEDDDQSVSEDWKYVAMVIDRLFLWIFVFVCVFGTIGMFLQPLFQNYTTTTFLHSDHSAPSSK

For `c1cnc2cc3c(cc2n1)[C@@H]1CNC[C@H]3C1` [Chantix ®, varenicline], the “Quit Rate at 4 Weeks Treatment” value ([1]; 4 weeks (ONCKEN)) is listed as 37.7%, the “Drug-placebo difference in quit rate” value ([1]; 4 weeks treatment (ONCKEN)) is listed as 21.4% and the “OR, quit rate versus placebo” value ([1]; 4 weeks treatment (ONCKEN)) is listed as 3.1. For the same compound, the “Drug-placebo difference in quit rate” value ([2]; 4 weeks off treatment (EAGLES)) was 20.7%, the “OR, quit rate versus placebo” value ([2]; 4 weeks off treatment (EAGLES)) was 3.5 and the “Quit Rate at End of Treatment” value ([2]; 12 weeks (EAGLES)) was 38.0%. For the same compound, the “CAR weeks 9-24 % (95% CI)” value ([2]; Region Non-U.S.) was 27.9 (25.2-30.8) %, the “Versus placebo OR (95% CI), CAR weeks 9-24” value ([2]; Region Non-U.S.) was 2.80 (2.20-3.55) and the “Versus placebo OR (95% CI), CAR weeks 9-24” value ([2]; Region U.S.) was 2.66 (1.99-3.55). For the same compound, the “CAR weeks 9-24 % (95% CI)” value ([2]; Region U.S., listed as Chantix®) was 16%, the “CAR weeks 9-24 % (95% CI)” value ([2]; Region U.S., listed as Varenicline) was 16.1 (14.0-18.4) % and the “overall quit rate at 24 weeks” value ([2]; all regions (EAGLES)) was 22%. The “Drug-placebo difference in quit rate” value [2, 6] was 24.3%, the “OR, quit rate versus placebo” value [2, 6] was 4.0 and the “Quit Rate at 4 Weeks Off Treatment” value ([2]; sustained quit (EAGLES)) was 33.2%. The Abnormal dreams [3] was 12.5%, the Headache [3] was 12.7% and the Insomnia [3] was 14.2%. The Nausea [3] was 27.8% and the “Serious AEs” value [3] was 3.3%.
For `O=c1cccc2n1C[C@@H]1CNC[C@H]2C1` [cytisine, (−)-Cytisine], the “binding to receptor subtype” value [4] is listed as “bind strongly and preferentially”, the “Reduction in CO (expired)” value ([5]; 1.5 mg TID) is listed as 71% and the “Reduction in CO (expired)” value ([5]; 1.5 mg, titration (COM) schedule) is listed as 78%. The “Reduction in CO (expired)” value ([5]; 3.0 mg TID) was 80%, the “OR, quit rate versus placebo” value ([5]; 3.0 mg TID, 4 weeks off treatment, Table 11) was 5.0 and the “OR, quit rate versus placebo” value ([5]; 3.0 mg TID, end of treatment (4 weeks), Tables 9-10) was 6.3. For the same compound, the “Reduction in CO (expired)” value ([5]; 3.0 mg, titration (COM) schedule) was 71%, the serum cotinine levels ([5]; all cytisine-treated arms, Week 4) was “material reduction” and the “Cigarette Score effect estimate (95% confidence interval), 3.0 mg TID versus pooled placebo” value ([5]; weighted analysis, diary from start of intervention) was −11.8 (−24.4, 0.9). For the same compound, the “TEAE: Abnormal dreams, subjects n (%)” value [7] was 4 (8%), the “TEAE: At least 1 AE, subjects n (%)” value [7] was 29 (57%) and the “TEAE: Fatigue, subjects n (%)” value [7] was 1 (2%). For the same compound, the “TEAE: Headache, subjects n (%)” value [7] was 1 (2%), the “TEAE: Insomnia, subjects n (%)” value [7] was 3 (6%) and the “TEAE: Nausea, subjects n (%)” value [7] was 5 (10%). For the same compound, the “TEAE: URTI, subjects n (%)” value [7] was 3 (6%), the “TEAE: Abnormal dreams, subjects n (%)” value (1.5 mg TID (n = 52)) was 4 (8%) and the “TEAE: At least 1 AE, subjects n (%)” value (1.5 mg TID (n = 52)) was 20 (39%). For the same compound, the “TEAE: Constipation, subjects n (%)” value (1.5 mg TID (n = 52)) was 1 (2%), the “TEAE: Fatigue, subjects n (%)” value (1.5 mg TID (n = 52)) was 3 (6%) and the “TEAE: Headache, subjects n (%)” value (1.5 mg TID (n = 52)) was 6 (12%). The “TEAE: Insomnia, subjects n (%)” value (1.5 mg TID (n = 52)) was 4 (8%), the “TEAE: Nausea, subjects n (%)” value (1.5 mg TID (n = 52)) was 1 (2%) and the “TEAE: URTI, subjects n (%)” value (1.5 mg TID (n = 52)) was 5 (10%). The “overall safety following dosing” value (1.5 mg or 3.0 mg treatment arms on both schedules) was “no safety concerns”, the “TEAE: Abnormal dreams, subjects n (%)” value [8] was 7 (14%) and the “TEAE: At least 1 AE, subjects n (%)” value [8] was 23 (46%). For the same compound, the “TEAE: Fatigue, subjects n (%)” value [8] was 2 (4%), the “TEAE: Headache, subjects n (%)” value [8] was 1 (2%) and the “TEAE: Insomnia, subjects n (%)” value [8] was 4 (8%). For the same compound, the “TEAE: Nausea, subjects n (%)” value [8] was 3 (6%), the “TEAE: URTI, subjects n (%)” value [8] was 2 (4%) and the “TEAE: Abnormal dreams, subjects n (%)” value (3.0 mg TID (n = 50)) was 3 (6%). The “TEAE: At least 1 AE, subjects n (%)” value (3.0 mg TID (n = 50)) was 21 (42%), the “TEAE: Constipation, subjects n (%)” value (3.0 mg TID (n = 50)) was 3 (6%) and the “TEAE: Fatigue, subjects n (%)” value (3.0 mg TID (n = 50)) was 1 (2%). The “TEAE: Headache, subjects n (%)” value (3.0 mg TID (n = 50)) was 2 (4%), the “TEAE: Insomnia, subjects n (%)” value (3.0 mg TID (n = 50)) was 3 (6%) and the “TEAE: Nausea, subjects n (%)” value (3.0 mg TID (n = 50)) was 3 (6%). For the same compound, the “TEAE: URTI, subjects n (%)” value (3.0 mg TID (n = 50)) was 3 (6%), the “Serious AEs” value (ORCA-1, pooled Cytisinicline (n = 203)) was 0 and the “TEAE: Abnormal dreams, subjects n (%)” value (Pooled Cytisinicline (n = 203)) was 18 (9%). For the same compound, the “TEAE: At least 1 AE, subjects n (%)” value (Pooled Cytisinicline (n = 203)) was 93 (46%), the “TEAE: Constipation, subjects n (%)” value (Pooled Cytisinicline (n = 203)) was 4 (2%) and the “TEAE: Fatigue, subjects n (%)” value (Pooled Cytisinicline (n = 203)) was 7 (3%). For the same compound, the “TEAE: Headache, subjects n (%)” value (Pooled Cytisinicline (n = 203)) was 10 (5%), the “TEAE: Insomnia, subjects n (%)” value (Pooled Cytisinicline (n = 203)) was 14 (7%) and the “TEAE: Nausea, subjects n (%)” value (Pooled Cytisinicline (n = 203)) was 12 (6%). For the same compound, the “TEAE: URTI, subjects n (%)” value (Pooled Cytisinicline (n = 203)) was 13 (6%).
For `CN1CCCC1c1cccnc1` (stereo not shown) [nicotine, Nicotine, reference compound], the “binding to receptor subtype” value [4] is given as “bind strongly and preferentially”.
